Measurements taken from patent publication US20230391727A1, “ANALOGUES OF PENTAMIDINE AND METHODS FOR TREATING INFECTIONS” (Auransa Inc., priority 2020, published 2023).
Values after ≈ are worked out from the molar mass of the structure shown. Where two headings read alike, the source gives them in different places. Each block holds one compound with its values, some of them ahead of it.

Experiments:
K. pneumoniae ATCC 43816 = assay: Checkerboard assay with rifampicin (FIG. 4); format: cell-based, Klebsiella pneumoniae; conditions: K. pneumoniae ATCC 43816, FIG. 4
A. baumannii ATCC 17978 = assay: Checkerboard assay with novobiocin (FIGS. 2, 3, 5, 6); format: cell-based, Acinetobacter baumannii
Source text: Novobiocin is an anti-staphylococcal drug, but with limited use. The oral form of novobiocin drug has since been withdrawn from the market due to lack of efficacy. This antibiotic is often used to treat Staphylococcus aureus infection, particularly methicillin resistant S. aureus “MRSA”.

NCI H69 cells = assay: CellTiter-Glo cell viability assay (cytotoxicity), 8 days; format: cell-based; conditions: Homo sapiens, 192 h, full growth media
Protocol: The experiment tested pentamidine, Compounds 1-6 in full growth media for 8 days. NCI H69 cells were initially treated with the test compounds on Day 0, and the cells were then replenished with fresh compound dilutions on Day 3. Pentamidine and Compound 1 were tested at 9 concentration points: 100 μM, 33.33 μM, 11.11 μM, 3.70 μM, 1.23 μM, […], 0.05 μM, and 0.02 μM (final DMSO concentration=0.5%). The raw data values from the CellTiter-Glo™ cell viability assay expressed in relative luminescence units were normalized to the vehicle for each individual plate, and any reduction in luminescence indicated a decrease in viability (%). The data was analyzed in GraphPad PRISM using a non-linear sigmoidal plot with variable slope (asymmetric four-point […]), and an IC50 value for each compound was generated based on the normalized dose-response curves and shown in Table 1.

S. aureus ATCC 43300 = assay: MIC assay against gram positive S. aureus; format: cell-based; conditions: Staphylococcus aureus, ATCC43300
Protocol: (§1) Then the compound stocks were serially 2-fold diluted in a v-bottom 96-well plate to make 100-fold working solutions. One day before the test, −80° C. glycerol stock of S. aureus strains were streaked on cation-adjusted Mueller-Hinton agar (CAMHA) plates. On the day of test, fresh bacterial colonies were suspended into sterile saline to an OD600 nm of ˜0.1 (equivalent to 0.5 McFarland). The bacterial suspension was firstly 20-fold followed by 50-fold diluted in cation-adjusted Mueller-Hinton broth (CAMHB) plates to 1×10^6 CFU/PO. 198 ul of the inoculum was added into the round-bottom 96-well plates prefilled with 2 ul of 100-fold compound working solutions. After incubating at 35 +/−2° C. in ambient atmosphere for 18-24 h, MIC was recorded as the lowest concentration under which no visible bacterial growth was observed.

S. aureus ATCC 27660 = assay: MIC assay against gram positive S. aureus; format: cell-based; conditions: Staphylococcus aureus, ATCC27660
Protocol: as §1

S. aureus VRS-2 = S. aureus VRS-2 peritonitis infection model; format: in vivo, female ICR mice; conditions: 50 mg/kg PO QD, 1 h post-infection, p<0.05
Protocol: The efficacy of compound 3 was evaluated in the S. aureus VRS-2 peritonitis infection model. The test article, compound 3 at 0.1, 0.3 and 1 mg/kg, was intraperitoneally (IP) administered twice at 2 and 16 h after infection; as well as once at 2 mg/kg at 2 h post-infection. The control reference agent, linezolid at 50 mg/kg, was orally (PO) administered once at 1 h post-infection. […] All animals in the vehicle group succumbed to infection between Day 1 to Day 2, resulting in 100% mortality, and a mean 15 h survival time. […] In the compound 3 at 1 mg/kg IP BID dose group, one out of eight animals survived till Day 7 of the study period, resulting in 13% survival rate, and a mean 33 h survival time.
For efficacy testing, the 0.4 mg/mL compound 3 solution was prepared by dissolving 1.21 mg of compound 3, corresponding to active ingredient of 1.02 mg with a correction factor of 1.19, in 2.55 mL of WFI. The 0.4 mg/mL compound 3 working solution was further diluted with WFI to generate three lower dosing solutions of 0.2, 0.06 and 0.02 mg/mL. All dosing solutions were soluble and colorless.
PDS supplied vancomycin and linezolid as reference controls for both MIC and in vivo studies. […] The 3.2 mg/mL linezolid 50× stock solution was prepared by dissolving 1.0 mg of linezolid in 0.313 mL of DMSO. Both solutions were colorless and soluble. For efficacy testing, one tablet of linezolid, at 600 mg, was dissolved in 12 mL of 1% Tween 80 in saline (0.9% NaCl) to generate a 50 mg/mL of stock solution. The 50 mg/mL linezolid stock solution was further diluted with 1% Tween 80 in 0.9% NaCl to generate the dosing solution of 5 mg/mL. Both solutions were insoluble with white color.
The S. aureus strain VRS-2 peritonitis infection model was performed with immunocompetent female ICR mice, weighing 22±2 g. All animals were specific pathogen free. The PDS standard protocol for preparing S. aureus cultures for mouse infection studies was followed. A 0.2 mL aliquot of a single-use glycerol stock (at −80° C.) was used to seed […] heart infusion (BHI) and then incubated at 35-37° C. with shaking (250 rpm) for 8 h. Bacterial cells in the 20 mL was pelleted by centrifugation (3,500×g) for 15 minutes, and then re-suspended in 10 mL cold phosphate buffer saline (PBS). The optical density, OD620 nm, was measured and used to guide dilution. The PBS suspensions were stored on ice for no more than 1 h prior to animal inoculation. The dilutions were performed by 1:1 dilution of BHI broth containing hog gastric mucin to obtain the target inoculum density, 1×10^8 CFU/mouse, per 0.5 mL with 5% mucin (final concentration). The actual colony count was determined by plating dilutions to nutrient agar (NA) plates followed by 20-24 h incubation at 35-37° C.
On Day 0, animals were infected with bacterial suspension with 5% mucin by intraperitoneal injection. The actual inoculum was 1.93×10^8 CFU/mouse with a target inoculum of 1×10^8 CFU/mouse in the peritonitis infection model. Test article, compound 3, was formulated in WFI and intraperitoneally (IP) administered with the dose schedule and concentrations indicated in the study design. Doses were administered once at 2 h post-infection or twice (BID) at 2 and 16 h post-infection. The animals were monitored for survival up to 7 days, twice daily (AM 9:00/PM 17:00). […]
Animals were monitored for mortality twice daily (AM 9:00/PM 17:00) for 7 days after infection. […]

[1] = test system: Staphylococcus aureus ATCC 33591 (MRSA); assay: MIC assay against gram positive and antibiotic-resistant S. aureus; format: cell-based; conditions: Staphylococcus aureus ATCC 33591, MRSA; read-out: MIC
Protocol: (§2) The MICs of vancomycin and linezolid were determined as quality controls and the MIC values of each strain met the acceptance criteria based on PDS historical reference data.
(§3) The direct colony suspension method was used to prepare inoculated broth. Isolated colonies were taken from an 18-24 h culture plate. Optical density measurements (OD620 nm) were used to estimate the bacterial density. The test article, compound 3, and reference control stock solutions were prepared in 100% DMSO as 50× stock solutions. The 50× stock solutions were diluted by 2-fold serial titrations with 100% DMSO for a total of 11 concentrations. A 4 μL aliquot of each dilution was added to 196 μL of cation-adjusted Mueller Hinton Broth II medium seeded with the organism in wells of a 96 well plate. The final vehicle concentration was two percent (2%) in all assay wells. The final bacterial count was 2 to 8×10^5 CFU/mL. The final compound 3 concentration range was 16 to 0.016 μg/mL. Each test substance dilution was evaluated in duplicate on one test occasion. Vehicle-control and reference controls were used as blank and positive controls, respectively. Plates were incubated at 35-37° C. for 18 h. The test plates were visually examined and each well was visually scored for growth or complete inhibition of growth. The MIC value was recorded.

[2] = test system: Staphylococcus aureus BAA-1556 (MRSA); assay: as above; format: cell-based; conditions: Staphylococcus aureus BAA-1556, MRSA; read-out: MIC
Protocol: as §2, §3

[3] = test system: Staphylococcus aureus VRS-2 (VRSA); assay: as above; format: cell-based; conditions: Staphylococcus aureus VRS-2, VRSA; read-out: MIC
Protocol: as §2, §3

[4] = test system: Staphylococcus aureus ATCC 19636; assay: as above; format: cell-based; conditions: ATCC19636; Staphylococcus aureus ATCC 19636; read-out: MIC
Protocol: as §2, §3

[5] = test system: Aspergillus fumigatus AF2; assay: Anti-fungal MIC assay; format: cell-based
Protocol: (§4) The first round of testing included Candida parapsilosis, Candida krusei, Paecilomyces variotii, Candida albicans, Aspergillus fumigatus, and Blastomyces dermatitidis. […] The second round of testing included Candida parapsilosis, Candida krusei, Candida albicans, Candida auris, Candida glabrata, Candida guilliermondii, and Cryptococcus neoformans.
(§5) Stock solutions of the investigational agent were prepared at concentrations 100-times the highest concentration to be tested (6400 μg/ml) using dimethyl sulfoxide. Aliquots of the stock solutions were dispensed into polystyrene vials and stored at −20° C.
(§6) The synthetic medium RPMI-1640 (with glutamine, without bicarbonate, and with phenol red) was used. The RPMI was buffered to a pH of 7.0+0.1 at 25° C. with 0.165M MOPS (3-[N-morpholino] propanesulfonic acid). Sterile U-shaped 96-well cell culture plates were used to perform the MIC assays. Dilutions of the DMSO stocks were prepared in RPMI to achieve 2× concentrations. After the dilutions of the working 2× investigational antifungal solutions were prepared, 0.1 ml of each concentration was transferred into a pre-specified column of the U-shaped 96-well cell culture plate using sterile pipettes.
(§7) Fungal isolates were grown on Sabouraud dextrose agar (yeasts) or potato flake agar (filamentous fungi) and cells were collected after an appropriate period of growth for each species being evaluated (e.g., 48-72 hours for yeasts and 7 days for filamentous fungi). The fungi were suspended in sterile distilled water, and the densities of the fungal suspension were read using a spectrophotometer and adjusted to an appropriate optical density specific for each fungal species. The fungal suspension of each isolate was then diluted in RPMI. A sufficient volume of the test inoculum was prepared to directly inoculate 0.1 ml into each test well of the 96-well cell culture plate. Final inoculum ranges were dependent on the fungal species to be tested (e.g., 0.4×103 to 5×10^3 cells/ml for yeasts and dimorphic fungi, and 0.4×104 to 5×10^4 cells/ml for filamentous fungi). Each well of the 96-well cell culture plate containing the investigational antifungal compounds (0.1 ml volume) was inoculated on the day of the assay with 0.1 ml of the fungal suspension. Growth control wells contained 0.1 ml of fungal suspension and 0.1 ml of the growth medium without antifungal agents. The media control well contained 0.2 ml of the growth medium.
(§8) The microdilution trays were incubated at 35° C. without agitation. […] One positive comparator/control was used for yeast (fluconazole) and one was used for filamentous fungi (voriconazole).

[6] = test system: Blastomyces dermatitidis BD1; assay: Anti-fungal MIC assay; format: cell-based
Protocol: as §4, §5, §6, §7, §8

[7] = test system: Aspergillus fumigatus AF3; assay: Anti-fungal MIC assay; format: cell-based
Protocol: as §4, §5, §6, §7, §8

[8] = test system: Aspergillus fumigatus AF293; assay: Anti-fungal MIC assay; format: cell-based; conditions: read-out: MIC, 50% growth inhibition
Protocol: as §4, §5, §6, §7, §8

[9] = test system: Blastomyces dermatitidis BD3; assay: Anti-fungal MIC assay; format: cell-based
Protocol: as §4, §5, §6, §7, §8

Candida krusei ATCC6258 = assay: Anti-fungal MIC assay; format: cell-based; conditions: Pichia kudriavzevii, first round (Table 5)
Protocol: as §4, §5, §6, §7, §8

[10] = test system: Blastomyces dermatitidis BD2; assay: Anti-fungal MIC assay; format: cell-based
Protocol: as §4, §5, §6, §7, §8

[11] = read-out: MIC, 50% growth inhibition
[12] = read-out: MIC, 100% growth inhibition

MIC (A. baumannii ATCC 17978; Acinetobacter baumannii, ATCC17978, substance alone): 138 µM
SMILES: N=C(N)c1cccc(CCCCCCCc2cccc(C3CCNC3)c2)c1 (centres unmarked) [Compound 2, 3-(7-(3-(pyrrolidin-3-yl)phenyl)heptyl)benzimidamide]
synergy with rifampicin (K. pneumoniae ATCC 43816): increased level of synergy
synergistic effect with novobiocin (A. baumannii ATCC 17978): clear synergistic effects
synergy with novobiocin as compared to pentamidine with novobiocin (A. baumannii ATCC 17978): superior synergy
IC50 (NCI H69 cells): 1.5 µM

SMILES: CC(=O)NC[C@H]1CN(c2ccc(N3CCOCC3)c(F)c2)C(=O)O1 [Linezolid, reference compound]
MIC (S. aureus ATCC 43300): 4 µg/mL (≈ 11.9 µM)
MIC (S. aureus ATCC 27660): 4 µg/mL (≈ 11.9 µM)
survival rate (S. aureus VRS-2): 100%
mean survival time (S. aureus VRS-2; maximum set at 180 h): 180 h
MIC [1]: 2 µg/mL (≈ 5.93 µM)
MIC [2]: 2 µg/mL (≈ 5.93 µM)
MIC [3]: 4 µg/mL (≈ 11.9 µM)
MIC [4]: 4 µg/mL (≈ 11.9 µM)

MIC [5, 11]: > 16 µg/mL
MIC [5, 12]: > 16 µg/mL
MIC [6, 11]: ≤ 0.03 µg/mL
MIC [6, 12]: 0.06 µg/mL (≈ 0.172 µM)
MIC [7, 11]: 2 µg/mL (≈ 5.73 µM)
MIC [7, 12]: 4 µg/mL (≈ 11.5 µM)
MIC [8]: 0.25 µg/mL (≈ 0.716 µM)
MIC [9, 11]: ≤ 0.03 µg/mL
MIC [9, 12]: 0.125 µg/mL (≈ 0.358 µM)
MIC (Candida krusei ATCC6258; ATCC6258, Candida krusei ATCC6258, read-out: MIC, 50% growth inhibition): ≤ 0.03 µg/mL
MIC (Candida krusei ATCC6258; ATCC6258, read-out: MIC, 100% growth inhibition, Candida krusei ATCC6258): 0.125 µg/mL (≈ 0.358 µM)
MIC [10, 11]: ≤ 0.03 µg/mL
MIC [10, 12]: 0.125 µg/mL (≈ 0.358 µM)
SMILES: C[C@@H](c1ncncc1F)[C@](O)(Cn1cncn1)c1ccc(F)cc1F [Voricolazole, voriconazole, reference compound]
